System: CD34+-derived cells (HSC, MPP, CPP)
Experiment: HSC/P numbers on FN-coated gels of different elasticity
Type: cell-based, human
Conditions: drug-treated cells
Experimental: 15-18 mm glass coverslips were treated in order with ethanol, RCA solution (1:1:3 for 15N NH4OH:30% H2O2:dH2O), methylene chloride and 0.1% allyltrichlorosilane solution. To control gel's stiffness, n,n′ methylene-bis-acrylamide and the acrylamide solution was mixed at the ratio of 0.07%:3% for soft gels (0.3 kPa), or the ratio of 0.3%:8% for stiff gels (34 kPa), final concentrations in PBS. ˜25 μl of the mixed solution was polymerized on a coverslip with 10% ammonium persulfate and n,n,n′,n′-tetramethylethylenediamine. During polymerization, gels were covered with another coverslip to obtain a uniform gel surface with the final thickness of ˜100 μm. Different concentrations of FN were then cross-linked with polymerized gels using sulfo-SANFAH (Pierce, Rockford, Ill.) by UV-crosslinking Thickness of gels and relative FN concentrations were verified by confocal microscopy. It is assumed that most FN from the solution was attached to gels (>70%). FN-coated gels were then treated with UV in PBS for at least 1 hr before use in cell culture.

Cc1ccc2c(c1)C(=O)C1(O)CCN(c3ccccc3)C1=N2 (racemic) [blebbistatin, (±)-blebbistatin]
CPP number soft vs stiff, mean: 0.9±0.1
MPP number soft vs stiff, mean: 1.0±0.1
increase of HSC-to-MPP ratio with increasing FN density: > 2 fold
ratio of HSC numbers soft vs stiff, mean: 1.1±0.2

From patent US9920295B2, “Bioreactor for isolation of rare cells and methods of use” (The Trustees of the University of Pennsylvania, priority 2012, dated 2018)
